Assay results as given in patent US20090325156A1, “MATERIALS AND METHODS FOR ABCB1 POLYMORPHIC VARIANT SCREENING, DIAGNOSIS, AND TREATMENT” (Government of the United States of America, as Represented …, priority 2005, published 2009).
Like-named read-outs stand apart in the source and are kept apart here.

Assays:
[1] = test system: patients with T-cell lymphoma; assay: Baseline corrected QTc interval (ΔQTc) on ECG after FK228 (romidepsin) treatment, by ABCB1 genotype; assay type: in vivo, human
Method: Complete blood cell counts with differential are obtained immediately prior to FK228 administration and on days 2, 9, and 16 to evaluate FK228-related myelosuppression. Multiple surface electrocardiograms (ECGs) are obtained immediately before FK228 administration, and at 4 hours after the start of FK228 administration, to evaluate the ability of FK228 to delay cardiac repolarization. This effect is manifested on the ECG as prolongation of the QT interval. The QT interval is transformed into the heart-rate independent corrected value known as the QTc interval. Prolongation of the QTc interval is the electrocardiographic finding associated with increased susceptibility to the development of cardiac arrythmias, including ventricular arrhythmias such as Torsade de Pointes. Because measurement of the baseline value is a factor that critically influences the observed variability in the mean QTc interval, values are computed as the mean of multiple ECGs to enhance the precision of the measurement. This computation is performed by collecting drug-free ECGs on three or more different days. The on-study time point for obtaining an ECG are selected to coincide with the maximum plasma concentration of FK228, as recommended in the preliminary FDA concept paper: The Clinical Evaluation Of Qt/Qtc Interval Prolongation And Proarrhythmic Potential For Non-Antiarrhythmic Drugs (Nov. 15, 2002) available at: http://www.fda.gov/ohrms/dockets/ac/03/briefing/pubs %5Cprelim.pdf.
Relationships between various exposure measures, for example, plasma AUC, and hematological and cardiac toxicity are evaluated by sigmoid maximum-effect models. […] Hematological pharmacodynamics are evaluated by analysis of the absolute nadir values of platelet counts or the relative thrombocytopenia, that is, the percent decrease in platelet count. Data are fitted to a sigmoid maximum-effect model based on the modified Hill equation, as follows: E=E0+Emax×[(KP^γ)/(KP^γ+KP50^γ)]. In this equation, E0 is the minimum reduction possible, Emax is the maximum response (fixed to a value of 100), KP is the pharmacokinetic parameter of interest, KP50 the value of the pharmacokinetic parameter predicted to result in half of the maximum response, and γ is the Hill constant, which describes the sigmoidicity of the curve. Models are evaluated for goodness of fit by minimization of sums of the squared residuals and by reduction of the estimated coefficient of variation for fitted parameters. Significance of the relationships are assessed by construction of contingency tables with subsequent chi-squared analysis.
All data are reported as median values with range, unless specified otherwise. Interindividual pharmacokinetic variability is calculated as the coefficient of variation, and expressed as a percentage. Genotype-frequency analysis of Hardy-Weinberg equilibrium is carried out using Clump version 1.9. The linkage between each pair of SNPs is determined in terms of the classical statistic D′. The absolute value for D′ (|D′|) of 1 denotes complete linkage disequilibrium, while a value of 0 denotes complete linkage equilibrium. The effects of the variant genotypes on ΔQTc, relative thrombocytopenia, dose-normalized AUC, apparent oral clearance, half-life, volume of distribution at steady-state are evaluated statistically with the nonparametric Kruskal-Wallis test. A post-hoc distribution-free multiple comparison procedure is performed using the Dunn test with Bonferroni correction to test pairs of median observations. All statistical analyses are performed using the NCSS software program (version 2001; NCSS, Kaysville, Utah). The a priori level of significance is set at 0.05.

[2] = test system: patients with T-cell lymphoma; assay: Hematological toxicity: percentage decrease in platelet count versus FK228 AUC (sigmoid maximum effect model); assay type: in vivo, human; details: P<0.001, FIG. 1
Method: Complete blood cell counts with differential are obtained immediately prior to FK228 administration and on days 2, 9, and 16 to evaluate FK228-related myelosuppression. Multiple surface electrocardiograms (ECGs) are obtained immediately before FK228 administration, and at 4 hours after the start of FK228 administration, to evaluate the ability of FK228 to delay cardiac repolarization. This effect is manifested on the ECG as prolongation of the QT interval. The QT interval is transformed into the heart-rate independent corrected value known as the QTc interval. […]
Relationships between various exposure measures, for example, plasma AUC, and hematological and cardiac toxicity are evaluated by sigmoid maximum-effect models. […] Hematological pharmacodynamics are evaluated by analysis of the absolute nadir values of platelet counts or the relative thrombocytopenia, that is, the percent decrease in platelet count. […] Models are evaluated for goodness of fit by minimization of sums of the squared residuals and by reduction of the estimated coefficient of variation for fitted parameters. Significance of the relationships are assessed by construction of contingency tables with subsequent chi-squared analysis.

clinical = details: human, plasma, intravenous; for Vd: Vss, volume of distribution at steady-state

SMILES: C/C=C1\NC(=O)[C@H]2CSSCC/C=C/[C@H](CC(=O)N[C@H](C(C)C)C(=O)N2)OC(=O)[C@H](C(C)C)NC1=O [FK228, (E)-(1S,4S,10S,21R)-7-[(Z)-ethylidene]-4,21-diisopropyl-2-oxa-12,13-dithia-5,8,20,23-tetraazabicyclo [8,7,6]-tricos-16-ene-3,6,19,22-pentanone]
- ΔQTc at four hours ([1]; Example 1, ABCB1 2677GA genotype, n=1): 17.8 ms
- ΔQTc at four hours, median ([1]; Example 1, ABCB1 2677GG genotype, n=10): 18.3 ms
- ΔQTc at four hours, median ([1]; Example 1, ABCB1 2677GT genotype, n=14): 16.5 ms
- ΔQTc at four hours, median ([1]; Example 1, ABCB1 2677T/T genotype, n=4): -5 ms
- ΔQTc at four hours, median ([1]; Example 1, carriers of the heterozygote diplotype (2677/3435), n=7): 11.3 ms
- ΔQTc at four hours, median ([1]; Example 1, carriers of the homozygote diplotype (2677/3435), n=19): 18.5 ms
- ΔQTc at four hours, median ([1]; Example 1, homozygous for the ABCB1 2677TT/3435TT diplotype, n=3): -5.0 ms
- ΔQTc at 4 hours, median ([1]; group 1, 0 reference alleles at both ABCB1 2677G>T/A and 3435C>T loci, N=4): -1 ms
- ΔQTc at 4 hours, median ([1]; group 1, no reference alleles at the ABCB1 2677G>T/A locus, N=6): -2.0 ms
- ΔQTc at 4 hours, median ([1]; group 1, one or more reference alleles at the ABCB1 2677G>T/A locus, N=32): 18.2 ms
- ΔQTc at 4 hours, median ([1]; group 1, single reference allele at either ABCB1 2677G>T/A or 3435C>T locus, N=6): 9.7 ms
- ΔQTc at 4 hours, median ([1]; group 1, two or more reference allele copy numbers at ABCB1 2677G>T/A and 3435C>T loci, N=28): 18.5 ms
- ΔQTc at 4 hours, median ([1]; group 2, 0 or 1 reference alleles at ABCB1 2677G>T/A, N=14): 4 ms
- ΔQTc at 4 hours, median ([1]; group 2, more than 1 reference allele at ABCB1 2677G>T/A, N=4): 24.5 ms
- association of AUC of FK228 with percentage decrease in platelet count [2]: weakly associated
- interindividual variability in drug clearance, percent coefficient of variation (Example 1, 42 patients): approximately 72%
- interindividual variability in drug clearance, percent coefficient of variation (Example 2): approximately 72%
- clearance (clinical; Clearance, All (N = 74), median): 238 mL/min
- clearance (clinical; Clearance, Group 1 (N = 45), median): 252 mL/min
- clearance (clinical; Clearance, Group 2 (N = 29), median): 232 mL/min
- clearance (clinical; FK228 clearance, Example 1, all 42 patients combined, 4-hour infusion 14 or 18 mg/m^2, mean ± standard deviation): 292 mL/min
- half-life (clinical; T1/2, half-life of the terminal phase, All (N = 74), median): 6 h
- half-life (clinical; T1/2, half-life of the terminal phase, Group 1 (N = 45), median): 6.8 h
- half-life (clinical; T1/2, half-life of the terminal phase, Group 2 (N = 29), median): 3.8 h
- Vd (clinical; All (N = 74), median): 93.6 L
- Vd (clinical; Group 1 (N = 45), median): 129 L
- Vd (clinical; Group 2 (N = 29), median): 64.9 L
- half-life (clinical; terminal half-life, Example 1, all 42 patients combined, 4-hour infusion 14 or 18 mg/m^2, mean ± standard deviation): 7.23 ± 3 h
